The target in this assay is T1, MsRv1273c/72c (Mycolicibacterium smegmatis, UniProt A0R271+A0R272).
T1 construct: gene MSMEG_5008
Format: binding.

Results on 3 molecules are retold here after publication PMC12038006, “Structure and mechanism of a mycobacterial isoniazid efflux pump MsRv1273c/72c with a degenerate nucleotide-binding site” (Nature Communications, 2025).

T1 sequence (A0R272 entry or part of it): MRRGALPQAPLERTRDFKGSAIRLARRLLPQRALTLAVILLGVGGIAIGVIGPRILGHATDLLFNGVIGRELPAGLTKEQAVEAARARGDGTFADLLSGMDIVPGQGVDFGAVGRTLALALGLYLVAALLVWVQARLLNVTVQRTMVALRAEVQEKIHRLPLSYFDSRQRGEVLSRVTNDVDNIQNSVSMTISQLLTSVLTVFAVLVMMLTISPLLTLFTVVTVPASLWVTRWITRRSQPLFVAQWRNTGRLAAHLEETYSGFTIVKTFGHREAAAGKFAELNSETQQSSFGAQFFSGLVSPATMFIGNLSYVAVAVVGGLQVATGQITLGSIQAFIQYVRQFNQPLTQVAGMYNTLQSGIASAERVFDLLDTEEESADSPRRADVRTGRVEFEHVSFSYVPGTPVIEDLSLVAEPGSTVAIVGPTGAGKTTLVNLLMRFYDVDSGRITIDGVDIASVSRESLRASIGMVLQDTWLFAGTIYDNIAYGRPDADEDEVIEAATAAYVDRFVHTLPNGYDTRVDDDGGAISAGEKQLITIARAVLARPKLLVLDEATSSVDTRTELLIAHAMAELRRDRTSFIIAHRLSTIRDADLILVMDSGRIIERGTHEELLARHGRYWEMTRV
T1 sequence (A0R271 entry or part of it): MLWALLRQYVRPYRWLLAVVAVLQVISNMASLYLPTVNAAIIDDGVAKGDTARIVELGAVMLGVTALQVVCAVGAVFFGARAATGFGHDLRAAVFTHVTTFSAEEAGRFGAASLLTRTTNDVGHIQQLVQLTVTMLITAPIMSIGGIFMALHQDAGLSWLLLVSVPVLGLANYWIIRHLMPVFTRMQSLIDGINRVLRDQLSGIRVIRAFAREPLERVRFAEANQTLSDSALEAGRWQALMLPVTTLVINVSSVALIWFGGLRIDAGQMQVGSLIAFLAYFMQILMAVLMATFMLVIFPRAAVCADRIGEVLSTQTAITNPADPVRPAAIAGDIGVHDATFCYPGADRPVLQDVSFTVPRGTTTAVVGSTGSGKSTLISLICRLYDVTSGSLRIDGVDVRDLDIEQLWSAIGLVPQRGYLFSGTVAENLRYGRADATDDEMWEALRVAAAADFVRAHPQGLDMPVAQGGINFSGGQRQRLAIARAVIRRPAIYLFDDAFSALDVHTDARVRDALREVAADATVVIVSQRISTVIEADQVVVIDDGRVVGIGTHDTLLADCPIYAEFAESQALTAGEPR

As to `Nc1ncnc2c1ncn2[C@@H]1O[C@H](COP(=O)(O)OP(=O)(O)OP(=O)(O)O)[C@@H](O)[C@H]1O` [ATP], the cryo-EM structure result is on record as “the degenerate site is bound with an ATP, which has not been hydrolyzed”. The same measure for `Nc1ncnc2c1ncn2[C@@H]1O[C@H](COP(=O)(O)OP(=O)(O)NP(=O)(O)O)[C@@H](O)[C@H]1O` [AMPPNP]: “Though both NBSs bind AMPPNP, the NBDs are partially dimerized at the degenerate site”; for `Nc1ncnc2c1ncn2[C@@H]1O[C@H](COP(=O)(O)OP(=O)(O)O)[C@@H](O)[C@H]1O` [ADP]: “In this structure, ADP binds at the consensus site”.
